Source: publication PMC5218480 (PLoS ONE, 2017)

System: MV-4-11 cells
Test: Gene expression microarray analysis (Affymetrix PrimeView) and GSEA
Assay type: cell-based, human
Parameters: RFU PODN (11730768_x_at) / Fold change /veh PODN (11730768_x_at) / RFU LINC00158 (11744669_a_at) / Fold change /veh LINC00158 (11744669_a_at) / RFU DUSP10 (11751237_a_at) / Fold change /veh DUSP10 (11751237_a_at) / RFU ID3 (11757404_x_at) / Fold change /veh ID3 (11757404_x_at) / RFU PLEKHG5 (11737974_s_at) / Fold change /veh PLEKHG5 (11737974_s_at) / RFU LRRC4B (11730491_at) / Fold change /veh LRRC4B (11730491_at) / RFU GIMAP4 (11747438_a_at) / Fold change /veh GIMAP4 (11747438_a_at) / RFU KRT8 (11758183_x_at) / Fold change /veh KRT8 (11758183_x_at) / RFU CNN1 (11734310_a_at) / Fold change /veh CNN1 (11734310_a_at) / RFU VPS37D (11726825_at) / Fold change /veh VPS37D (11726825_at) / RFU C10orf10 (11716522_x_at) / Fold change /veh C10orf10 (11716522_x_at) / RFU KIR2DL2 /// KIR2DL4 /// KIR2DL5A /// KIR2DL5B /// KIR2DS1 /// KIR2DS2 /// KIR2DS3 /// KIR2DS4 /// KIR3DL3 /// KIR3DL3 /// KIR3DS1 (11738374_at) / Fold change /veh KIR2DL2 /// KIR2DL4 /// KIR2DL5A /// KIR2DL5B /// KIR2DS1 /// KIR2DS2 /// KIR2DS3 /// KIR2DS4 /// KIR3DL3 /// KIR3DL3 /// KIR3DS1 (11738374_at) / RFU C1QL1 (11718748_at) / Fold change /veh C1QL1 (11718748_at) / RFU TMPRSS4 (11747572_a_at) / Fold change /veh TMPRSS4 (11747572_a_at) / RFU HAMP (11756126_x_at) / Fold change /veh HAMP (11756126_x_at) / RFU RNFT2 (11725882_a_at) / Fold change /veh RNFT2 (11725882_a_at) / RFU NR4A2 (11747474_a_at) / Fold change /veh NR4A2 (11747474_a_at) / RFU ABCC12 (11746883_a_at) / Fold change /veh ABCC12 (11746883_a_at) / RFU TMEM136 (11760407_x_at) / Fold change /veh TMEM136 (11760407_x_at) / RFU CLDN22 /// WWC2 (11732394_at) / Fold change /veh CLDN22 /// WWC2 (11732394_at) / RFU HLA-DPB1 (11760878_x_at) / Fold change /veh HLA-DPB1 (11760878_x_at) / RFU SPINT1 (11716480_a_at) / Fold change /veh SPINT1 (11716480_a_at) / RFU GAP43 (11754022_s_at) / Fold change /veh GAP43 (11754022_s_at) / RFU A4GNT (11735810_at) / Fold change /veh A4GNT (11735810_at) / RFU PRB3 (11715151_x_at) / Fold change /veh PRB3 (11715151_x_at) / RFU TUBB4B (11761932_at) / Fold change /veh TUBB4B (11761932_at) / RFU CAPN14 (11732068_a_at) / Fold change /veh CAPN14 (11732068_a_at) / RFU TMCC2 (11721928_a_at) / Fold change /veh TMCC2 (11721928_a_at) / RFU IRGQ (11745062_a_at) / Fold change /veh IRGQ (11745062_a_at) / RFU FAM174B (11720279_a_at) / Fold change /veh FAM174B (11720279_a_at) / RFU TMPRSS4 (11748680_a_at) / Fold change /veh TMPRSS4 (11748680_a_at) / RFU FAM212B (11763350_a_at) / Fold change /veh FAM212B (11763350_a_at) / RFU PLEKHG5 (11743358_a_at) / Fold change /veh PLEKHG5 (11743358_a_at) / RFU ZSCAN30 (11745921_a_at) / Fold change /veh ZSCAN30 (11745921_a_at) / RFU CMKLR1 (11741424_a_at) / Fold change /veh CMKLR1 (11741424_a_at) / RFU LOC101060620 /// MAPK8IP1 (11723275_at) / Fold change /veh LOC101060620 /// MAPK8IP1 (11723275_at) / RFU SPTSSB (11747773_x_at) / Fold change /veh SPTSSB (11747773_x_at) / RFU PRSS12 (11739890_at) / Fold change /veh PRSS12 (11739890_at) / RFU BIN1 (11741810_x_at) / Fold change /veh BIN1 (11741810_x_at) / RFU WNT11 (11732464_a_at) / Fold change /veh WNT11 (11732464_a_at) / RFU C10orf10 (11716521_a_at) / Fold change /veh C10orf10 (11716521_a_at) / RFU C5orf56 (11738089_at) / Fold change /veh C5orf56 (11738089_at) / RFU CYB561 (11721691_x_at) / Fold change /veh CYB561 (11721691_x_at) / RFU ANKRD19P (11752326_a_at) / Fold change /veh ANKRD19P (11752326_a_at) / RFU OR2T12 /// OR2T33 /// OR2T8 (11738714_s_at) / Fold change /veh OR2T12 /// OR2T33 /// OR2T8 (11738714_s_at) / RFU VCAN (11748164_a_at) / Fold change /veh VCAN (11748164_a_at) / RFU JSRP1 (11732532_at) / Fold change /veh JSRP1 (11732532_at) / RFU KRTAP10-11 (11738290_x_at) / Fold change /veh KRTAP10-11 (11738290_x_at) / RFU MYO3A (11730013_a_at) / Fold change /veh MYO3A (11730013_a_at) / RFU EBF3 (11725865_a_at) / Fold change /veh EBF3 (11725865_a_at) / RFU CAMK2N1 (11719241_x_at) / Fold change /veh CAMK2N1 (11719241_x_at) / RFU C5orf56 (11738088_a_at) / Fold change /veh C5orf56 (11738088_a_at) / RFU OLFML3 (11715873_a_at) / Fold change /veh OLFML3 (11715873_a_at) / RFU LOC100653217 /// NTM (11731650_a_at) / Fold change /veh LOC100653217 /// NTM (11731650_a_at) / RFU MAPK11 (11762145_a_at) / Fold change /veh MAPK11 (11762145_a_at) / RFU FIZ1 (11724087_x_at) / Fold change /veh FIZ1 (11724087_x_at) / RFU OASL (11726364_x_at) / Fold change /veh OASL (11726364_x_at) / RFU SOX15 (11748057_x_at) / Fold change /veh SOX15 (11748057_x_at) / RFU CD79A (11719716_a_at) / Fold change /veh CD79A (11719716_a_at) / RFU HIST1H1D (11736915_at) / Fold change /veh HIST1H1D (11736915_at) / RFU CASKIN2 (11723855_a_at) / Fold change /veh CASKIN2 (11723855_a_at) / RFU LOC730098 (11760151_x_at) / Fold change /veh LOC730098 (11760151_x_at) / RFU OR4N2 (11742367_at) / Fold change /veh OR4N2 (11742367_at) / RFU PRRT2 (11749266_a_at) / Fold change /veh PRRT2 (11749266_a_at) / RFU SNX32 (11753110_a_at) / Fold change /veh SNX32 (11753110_a_at) / RFU CDHR5 (11726645_a_at) / Fold change /veh CDHR5 (11726645_a_at) / RFU RCAN1 (11760418_a_at) / Fold change /veh RCAN1 (11760418_a_at) / RFU FAM167A (11723789_a_at) / Fold change /veh FAM167A (11723789_a_at) / RFU FAM26E (11764081_at) / Fold change /veh FAM26E (11764081_at) / RFU ISYNA1 (11749810_s_at) / Fold change /veh ISYNA1 (11749810_s_at) / RFU ACY1 (11761880_at) / Fold change /veh ACY1 (11761880_at) / RFU 11764098_at / Fold change /veh 11764098_at / RFU SAMD14 (11745864_x_at) / Fold change /veh SAMD14 (11745864_x_at) / RFU NPB (11741838_a_at) / Fold change /veh NPB (11741838_a_at) / RFU TMPRSS6 (11731388_a_at) / Fold change /veh TMPRSS6 (11731388_a_at) / RFU KRTAP10-2 (11738614_at) / Fold change /veh KRTAP10-2 (11738614_at) / RFU ARHGAP8 /// PRR5-ARHGAP8 (11727945_x_at) / Fold change /veh ARHGAP8 /// PRR5-ARHGAP8 (11727945_x_at) / RFU KRTAP5-7 /// NADSYN1 (11734609_at) / Fold change /veh KRTAP5-7 /// NADSYN1 (11734609_at) / RFU RASL12 (11751679_a_at) / Fold change /veh RASL12 (11751679_a_at) / RFU CDKN2B (11736163_a_at) / Fold change /veh CDKN2B (11736163_a_at) / RFU PRF1 (11729649_at) / Fold change /veh PRF1 (11729649_at) / RFU, ZNF638 /// ZNF638-IT1 / Fold change vs veh, ZNF638 /// ZNF638-IT1 / RFU, PANK3 / Fold change vs veh, PANK3 / RFU, SH3YL1 / Fold change vs veh, SH3YL1 / RFU, ZEB2 / Fold change vs veh, ZEB2 / RFU, NRIP1 / Fold change vs veh, NRIP1 / RFU, PTTG1IP / Fold change vs veh, PTTG1IP / RFU, CAPN2 / Fold change vs veh, CAPN2 / RFU, MED14 / Fold change vs veh, MED14 / RFU, SNORA58 / Fold change vs veh, SNORA58 / RFU, C1orf63 / Fold change vs veh, C1orf63 / RFU, LRRFIP1 / Fold change vs veh, LRRFIP1 / RFU, NDUFAF7 / Fold change vs veh, NDUFAF7 / RFU, SLC12A2 / Fold change vs veh, SLC12A2 / RFU, IBTK / Fold change vs veh, IBTK / RFU, ESF1 / Fold change vs veh, ESF1 / Fold change vs veh, TMEM50B / RFU, TAOK1 / Fold change vs veh, TAOK1 / RFU, ACBD3 / Fold change vs veh, ACBD3 / RFU, TMA16 / Fold change vs veh, TMA16 / RFU, RWDD3 / Fold change vs veh, RWDD3 / RFU, BCAT1 / Fold change vs veh, BCAT1 / RFU, EDEM3 / Fold change vs veh, EDEM3 / RFU, TMEM33 / Fold change vs veh, TMEM33 / RFU, WDR75 / Fold change vs veh, WDR75 / RFU, AHCTF1 / Fold change vs veh, AHCTF1 / RFU, TFRC / Fold change vs veh, TFRC / RFU, ZDHHC17 / Fold change vs veh, ZDHHC17 / RFU, NOM1 / Fold change vs veh, NOM1 / RFU, ARL8B / Fold change vs veh, ARL8B / RFU, ZBTB11 / Fold change vs veh, ZBTB11 / RFU, TAMM41 / Fold change vs veh, TAMM41 / RFU, KIAA1704 /// LOC100996395 / Fold change vs veh, KIAA1704 /// LOC100996395 / RFU, ING1 / Fold change vs veh, ING1 / RFU, TRMT61B / Fold change vs veh, TRMT61B / RFU, FUBP3 / Fold change vs veh, FUBP3 / RFU, TP53 / Fold change vs veh, TP53 / RFU, TNKS2 / Fold change vs veh, TNKS2 / RFU, ZFP14 / Fold change vs veh, ZFP14 / RFU, ACTR2 / Fold change vs veh, ACTR2 / RFU, PPP3R1 / Fold change vs veh, PPP3R1 / RFU, PIK3R1 / Fold change vs veh, PIK3R1 / RFU, HNRNPA1 / Fold change vs veh, HNRNPA1 / RFU, RNF170 / Fold change vs veh, RNF170 / RFU, ZNF28 / Fold change vs veh, ZNF28 / RFU, RNGTT / Fold change vs veh, RNGTT / RFU, OGT / Fold change vs veh, OGT / RFU, BRD1 / Fold change vs veh, BRD1 / RFU, MARS / Fold change vs veh, MARS / RFU, ZNF655 / Fold change vs veh, ZNF655 / RFU, FAHD1 / Fold change vs veh, FAHD1 / RFU, BDP1 / Fold change vs veh, BDP1 / RFU, LRRCC1 / Fold change vs veh, LRRCC1 / RFU, ARID1A / Fold change vs veh, ARID1A / RFU, ZNF146 / Fold change vs veh, ZNF146 / RFU, ZNF330 / Fold change vs veh, ZNF330 / RFU, GPN3 / Fold change vs veh, GPN3 / RFU, C9orf123 / Fold change vs veh, C9orf123 / RFU, N4BP2L2 / Fold change vs veh, N4BP2L2 / RFU, ARFIP1 / Fold change vs veh, ARFIP1 / RFU, FAM179B / Fold change vs veh, FAM179B / RFU, BCL10 / Fold change vs veh, BCL10 / RFU, UHRF1BP1L / Fold change vs veh, UHRF1BP1L / RFU, BET1 / Fold change vs veh, BET1 / RFU, CNOT2 / Fold change vs veh, CNOT2 / RFU, ZNF268 / Fold change vs veh, ZNF268 / Fold change vs veh, ZNF507 / RFU, DGCR2 / Fold change vs veh, DGCR2 / RFU, WDSUB1 / Fold change vs veh, WDSUB1 / Fold change vs veh, HSP90B1 /// MIR3652 / RFU, ADSS / Fold change vs veh, ADSS / RFU, GK / Fold change vs veh, GK / RFU, ZNF148 / Fold change vs veh, ZNF148 / RFU, TAF9 / Fold change vs veh, TAF9 / RFU, SLC1A5 / Fold change vs veh, SLC1A5 / RFU, SLMO2 / Fold change vs veh, SLMO2 / RFU, ABCC4 / Fold change vs veh, ABCC4 / RFU, LOC101060439 /// RAP1B / Fold change vs veh, LOC101060439 /// RAP1B / RFU, RFX7 / Fold change vs veh, RFX7 / RFU, GTPBP10 / Fold change vs veh, GTPBP10 / RFU, CNEP1R1 / Fold change vs veh, CNEP1R1 / RFU, BIVM-ERCC5 /// ERCC5 / Fold change vs veh, BIVM-ERCC5 /// ERCC5 / RFU, ILF3 / Fold change vs veh, ILF3 / RFU 11762660_at / Fold change /veh 11762660_at / RFU VCAN (11757783_s_at) / Fold change /veh VCAN (11757783_s_at) / RFU DDX43 (11728927_at) / Fold change /veh DDX43 (11728927_at) / RFU KRT8 (11758188_x_at) / Fold change /veh KRT8 (11758188_x_at) / RFU NKD1 (11759106_at) / Fold change /veh NKD1 (11759106_at) / RFU SRD5A1 (11742802_a_at) / Fold change /veh SRD5A1 (11742802_a_at) / RFU TPSAB1 /// TPSB2 (11721975_s_at) / Fold change /veh TPSAB1 /// TPSB2 (11721975_s_at) / RFU GSTM3 (11746129_a_at) / Fold change /veh GSTM3 (11746129_a_at) / RFU IL23R (11737362_x_at) / Fold change /veh IL23R (11737362_x_at) / RFU TMEM51 (11727254_a_at) / Fold change /veh TMEM51 (11727254_a_at) / RFU PIWIL2 (11732686_x_at) / Fold change /veh PIWIL2 (11732686_x_at) / RFU ORM1 (11744905_x_at) / Fold change /veh ORM1 (11744905_x_at) / RFU CCDC152 (11743942_at) / Fold change /veh CCDC152 (11743942_at) / RFU ECM1 (11717891_a_at) / Fold change /veh ECM1 (11717891_a_at) / RFU IL23R (11748794_a_at) / Fold change /veh IL23R (11748794_a_at) / RFU TNFAIP8L3 (11732012_x_at) / Fold change /veh TNFAIP8L3 (11732012_x_at) / RFU MBOAT4 (11741988_at) / Fold change /veh MBOAT4 (11741988_at) / RFU 11764193_at / Fold change /veh 11764193_at / RFU TMEM53 (11763286_at) / Fold change /veh TMEM53 (11763286_at) / RFU MAGEB2 (11727129_at) / Fold change /veh MAGEB2 (11727129_at) / RFU TMEM200A (11744735_a_at) / Fold change /veh TMEM200A (11744735_a_at) / RFU CCDC152 (11751479_a_at) / Fold change /veh CCDC152 (11751479_a_at) / RFU FAM211A (11726209_a_at) / Fold change /veh FAM211A (11726209_a_at) / RFU RGS16 (11746705_a_at) / Fold change /veh RGS16 (11746705_a_at) / RFU VCAN (11755009_s_at) / Fold change /veh VCAN (11755009_s_at) / RFU RHOB (11743442_s_at) / Fold change /veh RHOB (11743442_s_at) / RFU RGS16 (11720943_a_at) / Fold change /veh RGS16 (11720943_a_at) / RFU RGS16 (11720944_at) / Fold change /veh RGS16 (11720944_at) / RFU, VPS4B / Fold change vs veh, VPS4B / RFU, CREB1 / Fold change vs veh, CREB1 / RFU, DNAJC13 / Fold change vs veh, DNAJC13 / RFU, GNAQ / Fold change vs veh, GNAQ / RFU, CDK5R1 / Fold change vs veh, CDK5R1 / RFU, ZRANB3 / Fold change vs veh, ZRANB3 / RFU, CUL4A / Fold change vs veh, CUL4A / RFU, CCNY / Fold change vs veh, CCNY / RFU, UFL1 / Fold change vs veh, UFL1 / RFU, COG3 / Fold change vs veh, COG3 / RFU, DIAPH2 / Fold change vs veh, DIAPH2 / RFU, SKA2 / Fold change vs veh, SKA2 / RFU, AFF3 / Fold change vs veh, AFF3 / RFU, LMF1 / Fold change vs veh, LMF1 / RFU, IPO11 / Fold change vs veh, IPO11 / RFU, DFFB / Fold change vs veh, DFFB / RFU, FOXP1 / Fold change vs veh, FOXP1 / RFU, CARD8 / Fold change vs veh, CARD8 / RFU, STRN3 / Fold change vs veh, STRN3 / RFU, ADK / Fold change vs veh, ADK / RFU, RASSF2 / Fold change vs veh, RASSF2 / RFU, WIPF1 / Fold change vs veh, WIPF1 / RFU, LARP1B / Fold change vs veh, LARP1B / RFU, RASA1 / Fold change vs veh, RASA1 / RFU, RB1 / Fold change vs veh, RB1 / RFU, PPFIA1 / Fold change vs veh, PPFIA1 / RFU, MAT2A / Fold change vs veh, MAT2A / RFU, CCT5 / Fold change vs veh, CCT5 / RFU, WDR92 / Fold change vs veh, WDR92 / RFU, CUX1 / Fold change vs veh, CUX1 / RFU, TTC7A / Fold change vs veh, TTC7A / RFU, TMEM135 / Fold change vs veh, TMEM135 / RFU, DEPTOR / Fold change vs veh, DEPTOR / RFU, CPM / Fold change vs veh, CPM / RFU, DNAJB6 / Fold change vs veh, DNAJB6 / RFU, CACNA2D3 / Fold change vs veh, CACNA2D3 / RFU, DTX4 / Fold change vs veh, DTX4 / RFU, TFCP2 / Fold change vs veh, TFCP2 / RFU, GMCL1 /// GMCL1P1 / Fold change vs veh, GMCL1 /// GMCL1P1 / RFU, AEBP2 / Fold change vs veh, AEBP2 / RFU, SNHG1 /// SNORD22 /// SNORD25 /// SNORD26 /// SNORD27 /// SNORD28 /// SNORD29 /// SNORD31 / Fold change vs veh, SNHG1 /// SNORD22 /// SNORD25 /// SNORD26 /// SNORD27 /// SNORD28 /// SNORD29 /// SNORD31 / Fold change (Aza/veh), C12orf56 (ProbeSet 11735607_a_at) / Fold change (ACY-1035/veh), C12orf56 (ProbeSet 11735607_a_at) / Fold change (Aza/veh), FGFR1OP (ProbeSet 11751329_s_at) / Fold change (ACY-1035/veh), FGFR1OP (ProbeSet 11751329_s_at) / Fold change (Aza/veh), VPS36 (ProbeSet 11739960_a_at) / Fold change (ACY-1035/veh), VPS36 (ProbeSet 11739960_a_at) / RFU SYPL1 (11715823_x_at) / Fold change /veh SYPL1 (11715823_x_at) / RFU IGFBP7 (11715501_s_at) / Fold change /veh IGFBP7 (11715501_s_at) / RFU REEP3 (11722064_at) / Fold change /veh REEP3 (11722064_at) / RFU IGLL1 (11728026_x_at) / Fold change /veh IGLL1 (11728026_x_at): dose or concentration left out as unconfirmed
Conditions: ProbeSet 11717914_a_at; LIST B

Nc1ncn([C@@H]2O[C@H](CO)[C@@H](O)[C@H]2O)c(=O)n1 [azacitidine]
Fold change vs veh, BIVM-ERCC5 /// ERCC5: 0.92
